Test results as given in ChEMBL document CHEMBL1275576, “In vitro activity of tomopenem (CS-023/RO4908463) against anaerobic bacteria” (Antimicrob Agents Chemother, 2009).

Experiments:
[1] = test system: Bacteroides eggerthii DSM 20697; test: Antimicrobial activity against Bacteroides eggerthii ATCC 27754 by agar dilution method in presence of 5% laked sheep blood; assay type: functional
[2] = Antimicrobial activity against Bifidobacterium longum subsp. longum ATCC 15707 by agar dilution method in presence of 5% laked sheep blood; assay type: functional
Veillonella parvula = test: Antimicrobial activity against Veillonella parvula ATCC 10790 by agar dilution method in presence of 5% laked sheep blood; assay type: functional
[3] = test system: Bacteroides thetaiotaomicron; test: Antimicrobial activity against Bacteroides thetaiotaomicron ATCC 29741 by agar dilution method in presence of 5% laked sheep blood; assay type: functional
Bacteroides fragilis [4] = test: Antimicrobial activity against carbapenemase-producing Bacteroides fragilis GAI 30079 by agar dilution method in presence of 5% laked sheep blood; assay type: functional
Prevotella bivia = test: Antimicrobial activity against Prevotella bivia ATCC 29303 by agar dilution method in presence of 5% laked sheep blood; assay type: functional; details: DSM 20514
[5] = test system: Bifidobacterium pseudolongum; test: Antimicrobial activity against Bifidobacterium pseudolongum ATCC 25526 by agar dilution method in presence of 5% laked sheep blood; assay type: functional
Clostridium septicum = test: Antimicrobial activity against Clostridium septicum ATCC 12464 by agar dilution method in presence of 5% laked sheep blood; assay type: functional
Lactobacillus salivarius = test: Antimicrobial activity against Lactobacillus salivarius subsp. salivarius JCM 1231 by agar dilution method in presence of 5% laked sheep blood; assay type: functional; details: Ligilactobacillus salivarius
[6] = test system: Peptostreptococcus anaerobius; test: Antimicrobial activity against Peptostreptococcus anaerobius ATCC 27337 by agar dilution method in presence of 5% laked sheep blood; assay type: functional
Hoylesella oralis = test: Antimicrobial activity against Prevotella oralis ATCC 33269 by agar dilution method in presence of 5% laked sheep blood; assay type: functional
Lacticaseibacillus casei = test: Antimicrobial activity against Lactobacillus casei subsp. casei JCM 1134 by agar dilution method in presence of 5% laked sheep blood; assay type: functional
Porphyromonas gingivalis = test: Antimicrobial activity against Porphyromonas gingivalis ATCC 33277 by agar dilution method in presence of 5% laked sheep blood; assay type: functional
Schaalia odontolytica = test: Antimicrobial activity against Actinomyces odontolyticus GAI 91002 by agar dilution method in presence of 5% laked sheep blood; assay type: functional
Anaerococcus prevotii = test: Antimicrobial activity against Anaerococcus prevotii ATCC 9321 by agar dilution method in presence of 5% laked sheep blood; assay type: functional
[7] = test system: Propionibacterium granulosum; test: Antimicrobial activity against Propionibacterium granulosum ATCC 25564 by agar dilution method in presence of 5% laked sheep blood; assay type: functional; details: Cutibacterium granulosum
[8] = test system: Peptoniphilus asaccharolyticus; test: Antimicrobial activity against Peptoniphilus asaccharolyticus WAL 3218 by agar dilution method in presence of 5% laked sheep blood; assay type: functional
[9] = test system: Limosilactobacillus fermentum; test: Antimicrobial activity against Lactobacillus fermentum JCM 1173 by agar dilution method in presence of 5% laked sheep blood; assay type: functional
Bilophila wadsworthia = test: Antimicrobial activity against Bilophila wadsworthia WAL 7959 by agar dilution method in presence of 5% laked sheep blood; assay type: functional
Bacteroides fragilis [10] = test: Antimicrobial activity against carbapenemase-producing Bacteroides fragilis GAI 30144 by agar dilution method in presence of 5% laked sheep blood; assay type: functional
Gemella morbillorum = test: Antimicrobial activity against Gemella morbillorum ATCC 27824 by agar dilution method in presence of 5% laked sheep blood; assay type: functional
Prevotella intermedia = test: Antimicrobial activity against Prevotella intermedia ATCC 25611 by agar dilution method in presence of 5% laked sheep blood; assay type: functional
[11] = test system: Bacteroides heparinolyticus; test: Antimicrobial activity against Prevotella heparinolytica ATCC 35895 by agar dilution method in presence of 5% laked sheep blood; assay type: functional
Bifidobacterium bifidum = test: Antimicrobial activity against Bifidobacterium bifidum JCM 1255 by agar dilution method in presence of 5% laked sheep blood; assay type: functional
Thomasclavelia ramosa = test: Antimicrobial activity against Clostridium ramosum ATCC 25582 by agar dilution method in presence of 5% laked sheep blood; assay type: functional
Fusobacterium varium = test: Antimicrobial activity against Fusobacterium varium ATCC 8501 by agar dilution method in presence of 5% laked sheep blood; assay type: functional
Lactobacillus brevis = test: Antimicrobial activity against Lactobacillus brevis subsp. brevis JCM 1059 by agar dilution method in presence of 5% laked sheep blood; assay type: functional; details: Levilactobacillus brevis
Peptoniphilus indolicus = test: Antimicrobial activity against Peptoniphilus indolicus GAI 0915 by agar dilution method in presence of 5% laked sheep blood; assay type: functional
Bacteroides fragilis [12] = test: Antimicrobial activity against Bacteroides fragilis NCTC 10581 by agar dilution method in presence of 5% laked sheep blood; assay type: functional
Prevotella corporis = test: Antimicrobial activity against Prevotella corporis GAI 91000 by agar dilution method in presence of 5% laked sheep blood; assay type: functional
[13] = test system: Streptococcus intermedius; test: Antimicrobial activity against Streptococcus intermedius ATCC 27335 by agar dilution method in presence of 5% laked sheep blood; assay type: functional
[14] = test system: Campylobacter ureolyticus; test: Antimicrobial activity against Bacteroides ureolyticus NCTC 10941 by agar dilution method in presence of 5% laked sheep blood; assay type: functional
[15] = test system: Enterocloster clostridioformis; test: Antimicrobial activity against Clostridium clostridioforme NCTC 11224 by agar dilution method in presence of 5% laked sheep blood; assay type: functional
[16] = test system: Porphyromonas asaccharolytica; test: Antimicrobial activity against Porphyromonas asaccharolyticus ATCC 25260 by agar dilution method in presence of 5% laked sheep blood; assay type: functional; details: DSM 20707
Prevotella oris = test: Antimicrobial activity against Prevotella oris ATCC 33573 by agar dilution method in presence of 5% laked sheep blood; assay type: functional; details: Segatella oris
[17] = test system: Lactobacillus acidophilus; test: Antimicrobial activity against Lactobacillus acidophilus JCM 1132 by agar dilution method in presence of 5% laked sheep blood; assay type: functional
[18] = test system: Desulfovibrio desulfuricans; test: Antimicrobial activity against Desulfovibrio desulfuricans ATCC 29577 by agar dilution method in presence of 5% laked sheep blood; assay type: functional
[19] = Antimicrobial activity against Finegoldia magna ATCC 29328 by agar dilution method in presence of 5% laked sheep blood; assay type: functional
Capnocytophaga ochracea = test: Antimicrobial activity against Capnocytophaga ochracea GAI 5586 by agar dilution method in presence of 5% laked sheep blood; assay type: functional
Parvimonas micra = test: Antimicrobial activity against Parvimonas micra VPI 5464-1 by agar dilution method in presence of 5% laked sheep blood; assay type: functional
Prevotella buccae = test: Antimicrobial activity against Prevotella buccae ATCC 33574 by agar dilution method in presence of 5% laked sheep blood; assay type: functional; details: Segatella buccae
Bacteroides fragilis [20] = test: Antimicrobial activity against Bacteroides fragilis GAI 0558 by agar dilution method in presence of 5% laked sheep blood; assay type: functional
Bacteroides fragilis [21] = test: Antimicrobial activity against Bacteroides fragilis ATCC 25285 by agar dilution method in presence of 5% laked sheep blood; assay type: functional; details: NCTC 9343
Phocaeicola vulgatus = test: Antimicrobial activity against Bacteroides vulgatus GAI 0673 by agar dilution method in presence of 5% laked sheep blood; assay type: functional
[22] = Antimicrobial activity against Desulfovibrio piger DSM 749 by agar dilution method in presence of 5% laked sheep blood; assay type: functional, Desulfovibrio piger ATCC 29098
Bacteroides fragilis [23] = test: Antimicrobial activity against Bacteroides fragilis GAI 7955 by agar dilution method in presence of 5% laked sheep blood; assay type: functional

SMILES: Cc1ncc([N+](=O)[O-])n1CCO [METRONIDAZOLE]
- MIC [1]: 0.5 µg/mL
- MIC [2]: 8 µg/mL
- MIC (Veillonella parvula): 2 µg/mL
- MIC [3]: 1 µg/mL
- MIC (Bacteroides fragilis [4]): 1 µg/mL
- MIC (Prevotella bivia): 2 µg/mL
- MIC [5]: > 128 µg/mL
- MIC (Clostridium septicum): 1 µg/mL
- MIC (Lactobacillus salivarius): > 128 µg/mL
- MIC [6]: 0.125 µg/mL
- MIC (Hoylesella oralis): 0.125 µg/mL
- MIC (Lacticaseibacillus casei): > 128 µg/mL
- MIC (Porphyromonas gingivalis): 0.03 µg/mL
- MIC (Schaalia odontolytica): 16 µg/mL
- MIC (Anaerococcus prevotii): 2 µg/mL
- MIC [7]: > 128 µg/mL
- MIC [8]: 1 µg/mL
- MIC [9]: > 128 µg/mL
- MIC (Bilophila wadsworthia): 0.06 µg/mL
- MIC (Bacteroides fragilis [10]): 1 µg/mL
- MIC (Gemella morbillorum): > 128 µg/mL
- MIC (Prevotella intermedia): 1 µg/mL
- MIC [11]: 0.06 µg/mL
- MIC (Bifidobacterium bifidum): 4 µg/mL
- MIC (Thomasclavelia ramosa): 2 µg/mL
- MIC (Fusobacterium varium): 0.25 µg/mL
- MIC (Lactobacillus brevis): > 128 µg/mL
- MIC (Peptoniphilus indolicus): 0.5 µg/mL
- MIC (Bacteroides fragilis [12]): 1 µg/mL
- MIC (Prevotella corporis): 0.125 µg/mL
- MIC [13]: > 128 µg/mL
- MIC [14]: 2 µg/mL
- MIC [15]: ≤ 0.015 µg/mL
- MIC [16]: 0.25 µg/mL
- MIC (Prevotella oris): 0.25 µg/mL
- MIC [17]: > 128 µg/mL
- MIC [18]: 0.06 µg/mL
- MIC [19]: 1 µg/mL
- MIC (Capnocytophaga ochracea): 1 µg/mL
- MIC (Parvimonas micra): 1 µg/mL
- MIC (Prevotella buccae): 0.5 µg/mL
- MIC (Bacteroides fragilis [20]): 0.5 µg/mL
- MIC (Bacteroides fragilis [21]): 0.5 µg/mL
- MIC (Phocaeicola vulgatus): 0.25 µg/mL
- MIC [22]: 0.25 µg/mL
- MIC (Bacteroides fragilis [23]): 0.25 µg/mL

SMILES: C[C@@H](O)[C@H]1C(=O)N2C(C(=O)O)=C(S[C@H]3C[C@@H](C(=O)N4CC[C@H](NC(=O)CNC(=N)N)C4)N(C)C3)[C@H](C)[C@H]12 [TOMOPENEM]
- MIC [1]: 0.125 µg/mL
- MIC [2]: 0.5 µg/mL
- MIC (Veillonella parvula): 0.03 µg/mL
- MIC [3]: 0.5 µg/mL
- MIC (Bacteroides fragilis [4]): > 128 µg/mL
- MIC (Prevotella bivia): 0.5 µg/mL
- MIC [5]: 0.125 µg/mL
- MIC (Clostridium septicum): 0.03 µg/mL
- MIC (Lactobacillus salivarius): 0.5 µg/mL
- MIC [6]: 0.5 µg/mL
- MIC (Hoylesella oralis): 0.06 µg/mL
- MIC (Lacticaseibacillus casei): 1 µg/mL
- MIC (Porphyromonas gingivalis): 0.03 µg/mL
- MIC (Schaalia odontolytica): 0.5 µg/mL
- MIC (Anaerococcus prevotii): 0.125 µg/mL
- MIC [7]: 0.5 µg/mL
- MIC [8]: 0.03 µg/mL
- MIC [9]: 0.125 µg/mL
- MIC (Bilophila wadsworthia): 0.125 µg/mL
- MIC (Bacteroides fragilis [10]): > 128 µg/mL
- MIC (Gemella morbillorum): 0.03 µg/mL
- MIC (Prevotella intermedia): 0.06 µg/mL
- MIC [11]: 0.125 µg/mL
- MIC (Bifidobacterium bifidum): 0.06 µg/mL
- MIC (Thomasclavelia ramosa): 0.5 µg/mL
- MIC (Fusobacterium varium): 0.5 µg/mL
- MIC (Lactobacillus brevis): 0.25 µg/mL
- MIC (Peptoniphilus indolicus): ≤ 0.015 µg/mL
- MIC (Bacteroides fragilis [12]): 0.125 µg/mL
- MIC (Prevotella corporis): 0.06 µg/mL
- MIC [13]: 0.125 µg/mL
- MIC [14]: 0.03 µg/mL
- MIC [15]: 0.03 µg/mL
- MIC [16]: ≤ 0.015 µg/mL
- MIC (Prevotella oris): 0.125 µg/mL
- MIC [17]: 0.25 µg/mL
- MIC [18]: 0.25 µg/mL
- MIC [19]: 0.125 µg/mL
- MIC (Capnocytophaga ochracea): 0.06 µg/mL
- MIC (Parvimonas micra): 0.125 µg/mL
- MIC (Prevotella buccae): 0.25 µg/mL
- MIC (Bacteroides fragilis [20]): 1 µg/mL
- MIC (Bacteroides fragilis [21]): 0.25 µg/mL
- MIC (Phocaeicola vulgatus): 0.25 µg/mL
- MIC [22]: 0.03 µg/mL
- MIC (Bacteroides fragilis [23]): 4 µg/mL
